What was measured:
sel. Dd2-B2 TKL3T1268R = assay: 72-h ABS assay, MMV030084-selected line; assay type: cell-based, Plasmodium falciparum
Description: (§1) Synchronicity was achieved using three rounds of sorbitol treatment on early rings, spaced 48 h apart, followed by magnetic purification of segmented schizonts following the final sorbitol treatment. Parasites were highly synchronous to within a 3 h window of development. Assays were repeated on at least three independent occasions (each with technical duplicates) and statistical significance was assessed using Mann Whitney U tests.
The resulting MMV030084-resistant parasites were cloned by limiting dilution ([Baker et al., 2017]) to obtain genetically homogenous cultures for further phenotyping and whole-genome sequencing. A second round of […]. […] Drug susceptibility of resistant lines was assessed using a 72 h ABS assay as described above, and a Mann Whitney U test was applied to assess statistically significant differences.

Pf Dd2-B2 ABS parasites = assay: 72-h asexual blood stage (ABS) growth inhibition assay, Dd2-B2; assay type: cell-based, Plasmodium falciparum; details: Dd2-B2 wild-type, 72 h; read-out: Mean IC50, 72 h ABS activity
Description: as §1

CC(C)(C)CNCC(C)(C)c1nc(-c2ccc(Cl)c(O)c2)c(-c2ccncc2)[nH]1 [TCMDC-140549]
IC50 (sel. Dd2-B2 TKL3T1268R): 0.287 µM | IC50 (Pf Dd2-B2 ABS parasites): 0.21 µM

— article PMC7369637, “Inhibition of Resistance-Refractory P. falciparum Kinase PKG Delivers Prophylactic, Blood Stage, and Transmission-Blocking Antiplasmodial Activity” (Cell Chemical Biology, 2020)
